# Laboratory results: patent publication US20240041877A1, “DOSAGE REGIME AND METHOD FOR TREATING PULMONARY ARTERIAL HYPERTENSION” (Altavant Sciences GmbH, priority 2019, published 2024)
# Experiment: clinical
# Settings: human, plasma, oral, 100 mg
# Description: Food effect was to be evaluated in Part 1, Period 2.
# Pharmacokinetic data were to be summarized descriptively.
structure (smiles),measurement,value
"Nc1nc(O[C@H](c2ccc(Cl)cc2-c2ccccc2)C(F)(F)F)cc(N2CCC3(CC2)CN[C@H](C(=O)O)C3)n1 [KAR5417, (S)-8-(2-amino-6-((R)-1-(5-chloro-[1,1T-biphenyl]-2-yl)-2,2,2-trifluoroeth-oxy)pyrimidin-4-yl)-2,8-diazaspiro[4.5]decane-3-carboxylic acid]",Cmax at 1 day,121 ng/mL
same,Cmax at 14 day,194 ng/mL
